Starred links: 1 amine or outer side, 2 acyl side, 3 side chain; linkers in the order of their positions; H or OH if unused. Residues, ends and D or L forms follow the SMILES beside them. Groups on a side chain read outwards from the residue. *: point of attachment. C18 diacid = O=C(O)CCCCCCCCCCCCCCCCC(=O)*; γGlu = O=C(O)[C@H](CCC(=O)[*:2])N[*:1]
How the values were obtained:
[1] = molecular target: T1, human amylin receptor (hAMYR3) (Homo sapiens, UniProt O60896+P30988); assay: Human amylin receptor (hAMYR3) in vitro potency assay, CRE-luciferase reporter in BHK cells; assay type: cell-based; settings: BHK hAMYR3/CRE-Luc cells, 3 hours incubation, assay buffer with 1% ovalbumin
T1 construct: host or cells: BHK (Baby Hamster Kidney), Hollex-1 cell line further transfected with RAMP3
From the text: (§1) Activation of hAMYR3 leads to increased cellular concentrations of cAMP. Consequently, transcription is activated by promotors containing multiple copies of the CAMP response element (CRE). It is thus possible to measure hAMYR3 activity using a CRE-luciferase reporter gene introduced into Baby Hamster Kidney (BHK) cells co-expressing the hAMYR3.
A BHK cell line was stably transfected with the human calcitonin receptor (a) and a CRE-responsive luciferase (CRE-Luc) reporter gene according to methods known to the person skilled in the art (Hollex-1 cell line, obtained from Zymogenetics described in U.S. Pat. No. 5,622,839). The cell line was further transfected with human receptor modifying protein 3 (RAMP3) using standard methods. This turns the human calcitonin receptor into a human amylin-3(a) receptor.
(§2) Cells stocks were prepared by culturing of the stably transfected BHK hAMYR3/CRE-Luc cell line in growth medium consisting of DMEM (Gibco, 31966-021) supplemented with 10% FBS (Gibco, 16140-071), 1% Pen/Strep (Gibco, 15140-122), 0.5 mg/mL Geneticin (Gibco, 10131-027), 0.4 mg/mL Hygromycin (Invitrogen, 10687010) and 250 nM Methotrexate (Sigma, A6770). Cells at approximately 80-90% confluence were washed once with PBS (Gibco 14190-094) and loosened from the cell flasks with Versene (Gibco, 15040-033) or TrypLE™ (Gibco, 12605-010). After centrifugation, the cell pellet was dissolved and diluted to approximately 2.5×10E6 cells/mL in Recovery™ Cell Culture Freezing Medium (Gibco, 12648-010). Cells were aliquoted and stored at −180° C. until use.
(§3) The assay buffer consisted of DMEM without phenol red (Gibco, 11880-028) supplemented with 1× GlutaMAX (Gibco, 35050-038), 10 mM HEPES (Gibco, 15630-056) and 1% (w/v) ovalbumin (Sigma, A5503).
(§4) To perform the assay, BHK hAMYR3/CRE-Luc cells were thawed, washed once in PBS and seeded in 40 μL growth medium in a white 384-well culture plate (PerkinElmer, 6007688) at a cell density of 4.000 cells/well on the day before the experiment. The plate was incubated over night at 37° C. in 5% CO2. On the day of the assay, cells were washed once in assay buffer. Serial dilutions (7-fold dilutions, 7 concentrations Pr. compound and one well containing only assay buffer) of comparator compounds and amylin analogues were performed in assay buffer often starting from approximately 10 nM in 96-well plates and 30 μL of each concentration added to the 384-well assay plate with cells. The assay plate was incubated for 3 hours at 37° C. in 5% CO2 after which 30 μL SteadyLite Plus (PerkinElmer, 6066759) was added to each well. The assay plate was sealed, incubated at room temperature with gentle shaking for 5 minutes followed by 30 minutes incubation without shaking while protected from light. Luminescence was detected on a luminescence plate reader e.g. a Synergy 2 (BioTek).

[2] = molecular target: T2, human calcitonin receptor (hCTR) (Homo sapiens, UniProt P30988); assay: Human calcitonin receptor (hCTR) in vitro potency assay, CRE-luciferase reporter in BHK cells; assay type: cell-based; settings: BHK hCTR/CRE-Luc cells, 3 hours incubation, assay buffer with 1% ovalbumin; read-out: hCalcR potency, EC50
T2 construct: host or cells: BHK (Baby Hamster Kidney), Hollex-1 cell line
T2 sequence (P30988 25-474): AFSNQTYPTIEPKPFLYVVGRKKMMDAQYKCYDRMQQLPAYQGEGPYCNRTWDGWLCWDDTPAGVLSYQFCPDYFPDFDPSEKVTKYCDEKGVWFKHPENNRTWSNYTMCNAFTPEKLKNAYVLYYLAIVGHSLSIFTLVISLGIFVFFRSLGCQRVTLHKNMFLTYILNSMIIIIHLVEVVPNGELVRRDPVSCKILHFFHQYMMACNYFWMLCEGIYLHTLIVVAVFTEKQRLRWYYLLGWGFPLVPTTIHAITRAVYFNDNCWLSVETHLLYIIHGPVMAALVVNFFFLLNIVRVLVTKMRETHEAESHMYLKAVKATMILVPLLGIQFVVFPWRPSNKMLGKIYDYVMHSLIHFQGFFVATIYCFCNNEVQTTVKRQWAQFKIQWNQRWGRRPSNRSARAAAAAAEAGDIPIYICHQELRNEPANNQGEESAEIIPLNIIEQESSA
From the text: as §1, with “hCTR” for “hAMYR3”, “CAMP.” for “cAMP.”, “hCTR.” for “hAMYR3.”
A BHK cell line was stably transfected with the human calcitonin receptor (a) and a CRE-responsive luciferase (CRE-Luc) reporter gene according to methods known to the person skilled in the art (Hollex-1 cell line, obtained from Zymogenetics described in U.S. Pat. No. 5,622,839).
as §2, with “hCTR/CRE-Luc” for “hAMYR3/CRE-Luc”, “10131-027)” for “10131-027), 0.4 mg/mL Hygromycin (Invitrogen, 10687010)”
as §3
as §4, with “hCTR/CRE-Luc” for “hAMYR3/CRE-Luc”

T1 sequence (O60896 24-148, one chain of several): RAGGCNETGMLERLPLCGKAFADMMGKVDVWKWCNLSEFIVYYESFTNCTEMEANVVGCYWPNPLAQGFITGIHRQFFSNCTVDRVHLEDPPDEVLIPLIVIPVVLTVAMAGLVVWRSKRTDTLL

| Structure (SMILES) | EC50 [1] [pM] | EC50 [2] [pM] |
| --- | --- | --- |
| CC[C@H](C)[C@H](NC(=O)[C@H](C)NC(=O)CNC(=O)[C@H](Cc1ccccc1)NC(=O)[C@@H]1CCCN1C(=O)[C@H](CC(=O)O)NC(=O)[C@H](CO)NC(=O)[C@H](CO)NC(=O)[C@H](Cc1c[nH]cn1)NC(=O)[C@H](Cc1c[nH]cn1)NC(=O)[C@H](CC(C)C)NC(=O)[C@H](Cc1ccccc1)NC(=O)[C@H](CCC(=O)O)NC(=O)[C@H](C)NC(=O)[C@H](CC(C)C)NC(=O)[C@H](CCCNC(=N)N)NC(=O)[C@H](CCC(N)=O)NC(=O)[C@@H](NC(=O)[C@H](CCC(N)=O)NC(=O)[C@H](C)NC(=O)[C@@H](NC(=O)[C@H](C)NC(=O)[C@H](CC(C)C)NC(=O)[C@H](CC(N)=O)NC(=O)[C@H](CO)NC(=O)[C@H](C)NC(=O)CC[C@H](NC(=O)CCCCCCCCCCCCCCCCC(=O)O)C(=O)O)[C@@H](C)O)[C@@H](C)O)C(=O)N1CCC[C@H]1C(=O)N[C@@H](CO)C(=O)N[C@@H](CO)C(=O)N[C@H](C(=O)N[C@@H](CC(=O)O)C(=O)N[C@H](C(=O)NCC(=O)N1CCC[C@H]1C(=O)N[C@@H](CC(=O)O)C(=O)N[C@H](C(=O)N1CCC[C@H]1C(N)=O)[C@@H](C)O)C(C)C)[C@@H](C)O [Compound 12, N^1-[(4S)-4-carboxy-4-(17-carboxyheptadecanoylamino)butanoyl]-[Ala1,Ser2,Leu4,Ala7,Gln8,Glu14,His17,Asp21,Pro22,Pro27,Asp31,Pro34,Asp35,Pro37]-human amylin] ({C18 diacid-γGlu}-ASNLATAQTQRLAEFLHHSSDPFGAIPSSTDVGPDTP-NH2) | 1.88 | 1.99 |
| CC[C@H](C)[C@H](NC(=O)[C@@H]1CCCN1C(=O)CNC(=O)[C@H](Cc1ccccc1)NC(=O)[C@H](CC(N)=O)NC(=O)[C@H](CC(=O)O)NC(=O)[C@H](CO)NC(=O)[C@H](CO)NC(=O)[C@H](Cc1c[nH]cn1)NC(=O)[C@H](Cc1c[nH]cn1)NC(=O)[C@H](CC(C)C)NC(=O)[C@H](Cc1ccccc1)NC(=O)[C@H](CCC(=O)O)NC(=O)[C@H](C)NC(=O)[C@H](CC(C)C)NC(=O)[C@H](CCCNC(=N)N)NC(=O)[C@H](C)NC(=O)[C@@H](NC(=O)[C@H](CCC(N)=O)NC(=O)[C@H](C)NC(=O)[C@@H](NC(=O)[C@H](CO)NC(=O)[C@H](CC(C)C)NC(=O)[C@H](CO)NC(=O)CNC(=O)[C@H](C)NC(=O)CC[C@H](NC(=O)CCCCCCCCCCCCCCCCC(=O)O)C(=O)O)[C@@H](C)O)[C@@H](C)O)C(=O)N[C@@H](CC(C)C)C(=O)N1CCC[C@H]1C(=O)N1CCC[C@H]1C(=O)N[C@H](C(=O)N[C@@H](CC(=O)O)C(=O)N[C@H](C(=O)NCC(=O)N[C@@H](CO)C(=O)N[C@@H](CC(N)=O)C(=O)N[C@H](C(=O)N1CCC[C@H]1C(N)=O)[C@@H](C)O)C(C)C)[C@@H](C)O [Compound 13, N^1-[(4S)-4-carboxy-4-(17-carboxyheptadecanoylamino)butanoyl]-[Ala1,Gly2,Ser3,Leu4,Ser5,Ala7,Gln8,Ala10,Glu14,His17,Asp21,Pro25,Pro28,Pro29,Asp31,Pro37]-human amylin] ({C18 diacid-γGlu}-AGSLSTAQTARLAEFLHHSSDNFGPILPPTDVGSNTP-NH2) | 1.36 | 1.58 |
| CC[C@H](C)[C@H](NC(=O)[C@H](CCCCNC(=O)CC[C@H](NC(=O)CCCCCCCCCCCCCCCCC(=O)O)C(=O)O)NC(=O)CNC(=O)[C@H](Cc1ccccc1)NC(=O)[C@H](CC(N)=O)NC(=O)[C@H](CC(=O)O)NC(=O)[C@H](CO)NC(=O)[C@H](CO)NC(=O)[C@H](Cc1c[nH]cn1)NC(=O)[C@H](Cc1c[nH]cn1)NC(=O)[C@H](CC(C)C)NC(=O)[C@H](Cc1ccccc1)NC(=O)[C@H](CCC(=O)O)NC(=O)[C@H](C)NC(=O)[C@H](CC(C)C)NC(=O)[C@H](CCCNC(=N)N)NC(=O)[C@H](CCC(N)=O)NC(=O)[C@@H](NC(=O)[C@H](CCC(N)=O)NC(=O)[C@H](C)NC(=O)[C@@H](NC(=O)[C@H](CO)NC(=O)[C@H](CC(C)C)NC(=O)[C@H](CCC(N)=O)NC(=O)[C@H](CO)NC(=O)[C@H](C)NC(C)=O)[C@@H](C)O)[C@@H](C)O)C(=O)N[C@@H](CC(C)C)C(=O)N1CCC[C@H]1C(=O)N1CCC[C@H]1C(=O)N[C@H](C(=O)N[C@@H](CC(=O)O)C(=O)N[C@H](C(=O)NCC(=O)N[C@@H](CO)C(=O)N[C@@H](CC(N)=O)C(=O)N[C@H](C(=O)N1CCC[C@H]1C(N)=O)[C@@H](C)O)C(C)C)[C@@H](C)O [Compound 18, N^1-acetyl,N{Epsilon-25}-[(4S)-4-carboxy-4-(17-carboxyheptadecanoylamino)butanoyl]-[Ala1,Ser2,Gln3,Leu4,Ser5,Ala7,Gln8,Glu14,His17,Asp21,Lys25,Pro28,Pro29,Asp31,Pro37]-human amylin] (Ac-ASQLSTAQTQRLAEFLHHSSDNFGK([γGlu-C18 diacid])ILPPTDVGSNTP-NH2) | 1.38 | 1.19 |
